According to patent US9872871B2, “Compositions for use in restoring muscle glycogen and/or muscle mass” (Aarhus Universitet, priority 2013, dated 2018):
“Also recorded” adds a separate entry of the source.

Tests used:
[1] = system: muscle glycogen (vastus lateralis); assay: Muscle glycogen resynthesis after glycogen depleting exercise, double blinded crossover, vastus lateralis biopsies; format: in vivo, human
Experimental: In this example, the effect is examined of a 500 mg steviol glycosides supplementation together with post-exercise oral carbohydrate (1.5 g/kg/h), versus an isocaloric carbohydrate supplementation on muscle glycogen resynthesis, following glycogen depletive exercise. Fifteen trained male cyclists performed two cycling sessions of 120 min at 75-85% Vo2-max, with the post exercise supplementation of stevioside organized in a double blinded crossover study design. Over the course of a 4 h of recovery period, muscle biopsies were obtained from the vastus lateralis immediately and 240 minutes after exercise, to measure post-recovery glycogen concentration and rate of post-exercise glycogen synthesis. In order to measure plasma glucose, insulin and glucagon, blood samples were drawn before and immediately after exercise, and at every half hour during the four hour recovery period. Results A significant increase in total glycogen concentration was seen following the 4 hour of recovery in both trials (p<0.005). […] Plasma glucose and glucagon levels also show a reduction when stevioside was supplied.
In the present study, a double blinded crossover protocol was used to examine the effect of post exercise carbohydrate ingestion supplemented with or without stevioside supplementation on muscle glycogen resynthesis. The double blinded crossover protocol was chosen to ensure a satisfactory statistical power with the relative few subjects that were included in this study. After completing a preliminary anthropometric assessment incremental and VO2-max test, each subject completed two randomized experimental trials; separate by at least seven days.
After the preliminary testing, each subject underwent two experimental trials, with the experimental supplementation randomized using a randomizing software (Research randomizer) and blinded to both subject and researchers by supplementing the stevioside concealed in capsules. […] The two experimental trials were separated by at least seven days. The subjects were instructed to refrain from any intense exercise 24 hour before both the preliminary test and the two experimental trials. […]
As illustrated the table below, the subjects arrived fasting at 8:00 o'clock a.m. in the lab and completed a glycogen depletion ride consisting of 120 minutes cycling at 75%-80% of their maximal heart rate reserve, followed by a series of five 30 seconds sprint interval at an all-out intensity interspaced with a rest period of 60 seconds. Workload and target heart rate zone was calculated for the subjects, based on the results presented in table 1, performance characteristics of the subjects. […]

[2] = Plasma glucose, insulin and glucagon during the four hour recovery period; format: in vivo, human
Experimental: Before the subjects started the depletion ride, blood was drawn from a medial antecubital vein to establish baseline values for plasma glucose, plasma insulin and plasma glucagon concentrations. After completion of the depletion ride and 240 minutes later, a muscle biopsy was obtained from the vastus lateralis muscle by the use of a percutaneous needle biopsy technique, using the protocol described by Bergström (Bergström 1962). The biopsy sampling was performed by a trained physician with extensive experience in sterile technique. An area of anterolateral side of one thigh was disinfected with chlorhexidine, and local anesthetized with lidocaine (10 mg/ml) in the skin, subcutaneous tissue and muscle fascia. After the area was covered with a sterile hole-piece, a small incision in the skin and fascia of the leg was made with a scalpel and a tissue sample was taken with a Bergström biopsy needle with the aid of suction. The biopsy procedure was managed by Mikkel Overgaard, and assisted by Søren Lavrsen. Approx. 100 mg of muscle tissue was taken from the vastus lateralis muscle. The muscle tissue samples were weighted and immediately placed in liquid nitrogen, and then transferred to a freezer (−80° C.) for storage until analysis for determination of glycogen concentration would be made. At the same time a polyethylene catheter was placed subcutaneous into a medial antecubital vein from which blood samples were collected. 10 ml of blood were drawn for the analysis of plasma glucose and insulin, and 7.5 ml of blood was drawn for the analysis of plasma glucagon. After the first sample at 0 minutes, blood was drawn at 30, 60, 90, 120, 150, 180, 210 and 240 minutes after the subject has finished the glycogen depletion protocol. Blood samples were centrifuged before 2 ml of the plasma was pipetted into standard analyzing tubes and stored at −80° C. for later analysis.
Immediately after the muscle biopsy procedure and initial blood sampling, the subjects ingested either 500 mg of steviol glucosides, or placebo (500 mg of corn starch) Supplementation, together with 1.5 gr/body weight of liquid maltodextrine solution (Pure Power, Harre Denmark). The sequence of stevioside and placebo supplementation was randomized in a balanced order. At 60, 120 and 180 minutes after termination of the depletion ride, the subjects received another carbohydrate rich feeding (1.5 gr/body weight/hour of Carbohydrates/kg body weight/hour), in accordance with the guidelines recommended by (Ivy et al. 1988).
Blood samples were collected for the measurements for measurement of the plasma glucose, insulin and glucagon values before initiation of the glycogen depletion protocol and at 0, 30, 60, 90, 120, 150, 180, 210 and 240 minutes after the subject has finished the glycogen depletion protocol.
10 ml of blood were drawn for the analysis of plasma glucose and insulin, and 7.5 ml of blood was drawn for the analysis of plasma glucagon. All blood was drawn from the antecubital vein. For glucose and insulin the drawn blood was collected in lilthium heparinized tubes (Venosafe—plasma VF-109SHL, Terumo Europe N.V., Leuven, Belgium). For glucagon the drawn blood was collected in EDTA treated tubes (Venosafe). With all samples the tubes were turned over 10 times, to avoid coagulation, before they were centrifuged at 1500 G for 10 minutes at 5° C. using a Sigma 3-18 centrifuge (Sigma Laborzentrifugen GmbH, Osterode am Harz, Germany). 2 ml of the plasma was pipetted into standard analyzing tubes and stored at −80° C. for later analysis. After all testing sessions were finished; all blood samples were packed, according to regulations, in an icebox at […], and transported to the Diabetes laboratory 4, at Aarhus University Hospital, Tage-Hansens Gade (Aarhus, Denmark) for analysis of plasma glucose, insulin and glucagon concentration. […]

[3] = type 2 diabetic subjects, cited from earlier work
isolated mouse islets = settings: effect faded at normal to low glucose; cited from earlier work
[4] = type II diabetic patients, cited from earlier work
[5] = lean and obese Zucker rats; 200 or 500 mg/kg by gavage; cited from earlier work
[6] = system: skeletal muscle glucose transport system; settings: soleus and epitrochlearis muscles of lean and obese Zucker rats; dose-dependent; cited from earlier work
[7] = Wistar rats, 20 mg/kg orally daily for 5 days, cited from earlier work

In the case of `C=C1C[C@@]23CC[C@H]4[C@@](C)(CCC[C@@]4(C)C(=O)O[C@@H]4O[C@H](CO)[C@@H](O)[C@H](O)[C@H]4O)[C@@H]2CC[C@]1(O[C@@H]1O[C@H](CO)[C@@H](O)[C@H](O)[C@H]1O[C@@H]1O[C@H](CO)[C@@H](O)[C@H](O)[C@H]1O)C3` [stevioside, Stevioside], the “increase of glycogen resynthesis rate compared to placebo” value ([1]; 4 h recovery, 500 mg orally with carbohydrate) is reported as 35%, the “glycogen resynthesis rate (rate of glycogen repletion)” value ([1]; 4 h recovery, 500 mg steviol glycosides orally with carbohydrate 1.5 g/kg/h, mean±SE, placebo 27.96±2.6) is reported as 37.84 ± 3.72 mmol/kg/h and the muscle glycogen concentration ([1]; 240 minutes after completion of the depletion protocol, placebo 246.4±20) is reported as 281.5±29 mmol/kg/dw. For the same molecule, the “effect on post-exercise muscle glycogen resynthesis” value ([1]; four hour recovery period, in addition to carbohydrate, p<0.022) was “increase muscle glycogen resynthesis significantly”, the “time of second plasma insulin peak concentration” value ([2]; after third CHO feeding at 120 minutes, placebo at 150) was 180 min and the “difference in plasma insulin concentration between stevioside and control (iAUC)” value ([2]; any times during the recovery period, p=0.95) was “no significant difference”. For the same molecule, the “plasma glucagon concentration (area under the curve) compared to placebo” value ([2]; four hour recovery period) was “reduction”, the “plasma glucagon concentration (area under the curve) compared to placebo” value ([2]; four hour recovery period, listed as stevia) was “clearly reduced” and the “plasma glucose response (iAUC) compared to placebo” value ([2]; four hour recovery period, not statistically significant) was “reduction; also recorded: lower”. The “plasma insulin, mean area under the curve” value ([2]; four hour recovery period, placebo 55790±12660) was 56720±11950 ng/ml*4 hours, the “suppression of postprandial blood glucose level” value ([3]; 1 g stevioside with standard meal vs maize starch) was 18% and the circulating insulin levels ([3]; 1 g stevioside with standard meal) was “tended to be increased”. The insulin release (isolated mouse islets) was “glucose-dependent insulin release”, the “postprandial glucagon like peptide-1 level” value ([4]; 1 g orally) was “significantly reduced” and the insulin response ([4]; 1 g orally, not statistically significant) was “tended to stimulate insulin response”. The “reduction of post prandial blood glucose response compared to placebo” value ([4]; 1 g stevioside orally with standard meal) was 18.5%, the “fasting plasma glucose and insulin” value [5] was “did not significantly affect” and the “insulin action on skeletal muscle glucose transport system” value [6] was “improves the insulin action”. For the same molecule, the “glucose levels before the glucose test compared to control group” value [7] was “no significant decrease” and the “glucose levels under increased loading during the glucose test” value ([7]; stevioside alone) was “conferred beneficial effects”.
